Like-named read-outs stand apart in the source and are kept apart here. Blank lines part the entries; values can stand above or below the compound they belong to.
Assays:
pulmonary hypertension [1] = details: cited from earlier work
patients with severe PAH = details: versus placebo; cited from earlier work
[2] = hydrophobicity scale of amino acids; assay type: physicochemical; details: scale on which glycine has the value 0.5
Excerpt: Hydrophobicity is generally defined with respect to the partition of an amino acid between a nonpolar solvent and water. Hydrophobic amino acids are those acids which show a preference for the nonpolar solvent. Relative hydrophobicity of amino acids can be expressed on a hydrophobicity scale on which glycine has the value 0.5. On such a scale, amino acids which have a preference for water have values below 0.5 and those that have a preference for nonpolar solvents have a value above 0.5. As used herein, the term hydrophobic amino acid refers to an amino acid that, on the hydrophobicity scale has a value greater or equal to 0.5, in other words, has a tendency to partition in the […] which is at least equal to that of glycine.
A mixture including 40 weight % of an amino acid and 60 weight % DPPC is formed in a 70/30 vol/vol ethanol-water co-solvent and spray-dried and the geometric aerodynamic diameters for the particles are determined. In addition, the hydrophobicity and tap density may also be determined. Tap density may be determined using the equation provided above.

[3] = test system: erectile dysfunction (ED); details: in vivo; cited from earlier work
[4] = dissolution of HDC glass discs in water; assay type: physicochemical
pulmonary hypertension [5] = details: in vivo; cited from earlier work
PAH = details: oral; cited from earlier work
[6] = test system: African Green monkey kidney-derived cell line Vero; assay: toxicity of HDC glasses in vitro; assay type: cell-based; details: week of culture
Experimental: A saturated solution of TOAC in deionized distilled water (0.42 g in 20 mls) is tested for toxicity in vitro using the African Green monkey kidney-derived cell line Vero, in either a 10-fold serial dilution or by adding the TOAC powder directly to the tissue culture medium.

[7] = glass stability of derivatized carbohydrates immersed in aqueous medium; assay type: physicochemical; details: THEX: saline medium at 37° C.; lactose derivative: water
[8] = test system: patients with pulmonary hypertension; details: administered by aerosolization; cited from earlier work
men with ED = details: cited from earlier work
[9] = test system: men with mild-to-severe ED; details: cited from earlier work

Structure (SMILES): COc1ccccc1Oc1c(NS(=O)(=O)c2ccc(C(C)(C)C)cc2)nc(-c2ncccn2)nc1OCCO [bosentan]
- liver toxicity (pulmonary hypertension [1]; higher dose): liver toxicity occurred
- six minute walk test (pulmonary hypertension [1]; whole group): improved

Structure (SMILES): CC#CCC(C)[C@H](O)/C=C/[C@@H]1[C@H]2C/C(=C/CCCC(=O)O)C[C@H]2C[C@H]1O (some centres unmarked) [iloprost]
- exercise capacity (patients with severe PAH): improved exercise capacity

- hydrophobicity [2]: 0.943
Structure (SMILES): CC[C@H](C)[C@H](N)C(=O)O [Isoleucine]

Structure (SMILES): CCCc1nc(C)c2c(=O)[nH]c(-c3cc(S(=O)(=O)N4CCN(CC)CC4)ccc3OCC)nn12 [Levitra, vardenafil HC1]
- most commonly reported side effects [3]: headache, flushing, and stuffy or runny nose

- solubility of the glass in water [4]: poorly soluble in water
- loss of original weight ([4]; disc 20 mm diameter, 2.5 mm thick, flowing water, 10 days): about 33%
Structure (SMILES): CC(=O)OC[C@H]1O[C@@H](OC(C)=O)[C@H](OC(C)=O)[C@@H](OC(C)=O)[C@@H]1OC(C)=O [β-D-glucose pentaacetate]

- hydrophobicity [2]: 0.043
Structure (SMILES): N[C@@H](CCC(=O)O)C(=O)O [Glutamate]

Structure (SMILES): Cc1cc2c(cc1CC(=O)c1sccc1S(=O)(=O)Nc1onc(C)c1Cl)OCO2 [sitaxsentan]
- decrease in pulmonary vascular resistance (pulmonary hypertension [5]): 30%
- six minute walk test (pulmonary hypertension [5]): improvement

- loss of original weight ([4]; disc in 1 l of water replaced daily, 7 days): 20%
Structure (SMILES): CC(=O)OC[C@H]1O[C@H](OC(C)=O)[C@H](OC(C)=O)[C@@H](OC(C)=O)[C@@H]1OC(C)=O [α-D-glucose pentaacetate]

Structure (SMILES): CC#CCC(C)[C@H](O)/C=C/[C@@H]1[C@H]2c3cccc(CCCC(=O)O)c3O[C@H]2C[C@H]1O (mixture of isomers) [Beraprost]
- benefit in PAH (PAH): benefit in a study in PAH at 3 and 6 months but not at 9 or 12 months

Structure (SMILES): CC(=O)OCC1OC(OC2OC(COC(C)=O)C(OC(C)=O)C(OC(C)=O)C2OC(C)=O)C(OC(C)=O)C(OC(C)=O)C1OC(C)=O (centres unmarked) [TOAC, trehalose octaacetate]
- toxicity in vitro ([6]; saturated solution in water (0.42 g in 20 mls), 10-fold serial dilution or powder added to the medium): No toxic effects
- cell division [6]: normal

- stability of the glassy state when immersed [7]: very stable in the glassy state
Structure (SMILES): CC(=O)OC[C@H]1O[C@@H](O[C@H]2[C@H](OC(C)=O)[C@@H](OC(C)=O)C(OC(=O)C(C)C)O[C@@H]2COC(C)=O)[C@H](OC(C)=O)[C@@H](OC(C)=O)[C@H]1OC(C)=O (some centres unmarked) [lactose isobutyrate heptaacetate]

- hydrophobicity [2]: 0.501
Structure (SMILES): N[C@@H](Cc1ccccc1)C(=O)O [Phenylalanine]

Structure (SMILES): CCCCC[C@H](O)/C=C/[C@@H]1[C@H]2C/C(=C/CCCC(=O)O)O[C@H]2C[C@H]1O [prostacyclin]
- duration of effects [8]: 15 min

Structure (SMILES): CN1CC(=O)N2[C@H](c3ccc4c(c3)OCO4)c3[nH]c4ccccc4c3C[C@@H]2C1=O [Cialis, tadalafil]
- most commonly reported treatment-emergent adverse effects (men with ED; 10 mg, increased to 20 mg, at least one year): headache and upset stomach
- discontinuation rate for any individual adverse event (men with ED; in vivo): less than 1%
- patients who discontinued the study due to side effects (men with ED; in vivo): Five
- most commonly reported treatment-emergent adverse effects ([9]; greater than or equal to 5 percent): headache, back pain, and upset stomach
- patients who discontinued the study because of adverse events ([9]; in vivo): 5%

- stability of the glassy state when immersed [7]: stable in the glassy state
Structure (SMILES): CC(C)(C)CC(=O)O[C@@H]1[C@@H](OC(=O)CC(C)(C)C)[C@@H](O[C@H]2O[C@H](CO)[C@@H](OC(=O)CC(C)(C)C)[C@H](OC(=O)CC(C)(C)C)[C@H]2OC(=O)CC(C)(C)C)O[C@H](CO)[C@H]1OC(=O)CC(C)(C)C [THEX, Trehalose hexa-3,3-dimethylbutyrate]
